US20240067651A1 (Biohaven Therapeutics Ltd., priority 2019, published 2024)
Values belong to the compound of their own block, whether it stands above or below them.

What was measured:
Plasma Stability = format: in vitro ADME, human
Procedure: Plasma stability estimates the ability of a compound to remain intact in the blood. For prodrugs that are intended to be hydrolyzed by plasma enzymes a certain level of instability in plasma indicates the compound is probably breaking down to the parent drug. A stability range of 25-75% remaining parent compound after 1 hour in plasma indicates the compound is likely breaking down to the parent drug molecule and a patient will be exposed to this parent molecule.
Assessment of plasma stability was carried out by individual incubations of drug candidates in fresh human plasma at a concentration of 1 μM for 1 hour at 37° C. After which, the samples were de-proteinized by addition of 2 volumes of acetonitrile containing 0.1% formic acid and internal standard, vortex mixed for 2 minutes and centrifuged at 4,000 rpm for 10 minutes to pellet precipitated protein. The resulting supernatant containing the drug candidates was diluted 5-fold with water containing 0.1% formic acid and submitted to LCMS/MS analysis. All determinations were done in triplicate. Plasma stability was expressed as percent of control remaining.
See Pelletier et al. ACS Med. Chem. Lett. 2018, 9, 752-756.

[1] = Stability in Simulated Intestinal Fluid (SIF); format: in vitro ADME; set-up: key: % parent compound remaining relative to 0-minute sample
Procedure: (§1) Simulated gastric fluid (SGF) and Simulated intestinal fluid (SIF) stability are in vitro metrics indicating the ability of a compound to pass through the gastrointestinal tract […] or completely digested. An undigested or nearly undigested compound will usually survive gut transit long enough to be absorbed into the systemic circulation. Greater than 50% remaining intact compound at 1 hour indicates a relatively stable molecule that will likely be absorbed in the gut.
(§2) For each test compound, samples at a final concentration of 2 μg/mL are prepared in respective blank simulated gastric fluid with pepsin (pH 1.2) and simulated intestinal fluid with pancreatin (pH 6.8). All samples are incubated at 37° C. on a 150-rpm orbital shaker, and an aliquot is removed at predetermined time points (0 to 60 minutes). Samples are precipitated with three volumes of acetonitrile containing propranolol as internal standard, and centrifuged for 10 min at 2,000 g before LC-MS/MS analysis of the supernatant solutions. Percent parent compound remaining is determined relative to 0-minute incubation samples. If a sufficient number of time points are available, the degradation half-life is calculated based on the natural log of % compound remaining vs. time plot.

[2] = Stability in Simulated Gastric Fluid (SGF); format: in vitro ADME; set-up: key: % parent compound remaining relative to 0-minute sample
Procedure: as §1, §2

[3] = simulated intestinal fluid, at 1 h
[4] = simulated gastric fluid, at 1 h
[5] = bare number, unit or time not given
[6] = simulated intestinal fluid, remaining at 1 h
[7] = simulated gastric fluid, remaining at 1 h

human Plasma stability (Plasma Stability; human plasma, at 1 h): 96% remaining
SIF [1, 3]: 100% remaining
SGF [2, 4]: 99% remaining
Compound: Cc1ccccc1N(C)C(=O)OCn1ccc2c1c(=O)[nH]c(=S)n2CCOC(C)C [Example 251]

human Plasma stability (Plasma Stability; human plasma, at 1 h): 100% remaining
SIF [1, 3]: 80% remaining
SGF [2, 4]: 100% remaining
Compound: Cc1cccc(N(C)C(=O)OCn2ccc3c2c(=O)[nH]c(=S)n3CCOC(C)C)c1 [Example 252]

Compound: CC(C)OCCn1c(SCOC(=O)[C@@H](N)Cc2ccccc2)nc(=O)c2[nH]ccc21.O=C(O)C(F)(F)F [Example 310, trifluoroacetic acid ({4-oxo-1-[2-(propan-2-yloxy)ethyl]-1H,4H,5H-pyrrolo[3,2-d]pyrimidin-2-yl}sulfanyl)methyl (2S)-2-amino-3-phenylpropanoate]
human Plasma stability (Plasma Stability; % remaining @ 1 h): 4% @ 1 h
SIF ([1]; % remaining @ 1 h): 32% @ 1 h
SGF ([2]; % remaining @ 1 h): 99% @ 1 h

Compound: CC(C)C[C@@H](N)C(=O)OCn1ccc2c1c(=O)[nH]c(=S)n2CCOC(C)C.O=C(O)C(F)(F)F [Example 324, trifluoroacetic acid {4-oxo-1-[2-(propan-2-yloxy)ethyl]-2-sulfanylidene-1H,2H,3H,4H,5H-pyrrolo[3,2-d]pyrimidin-5-yl}methyl (2R)-2-amino-4-methylpentanoate]
human Plasma stability (Plasma Stability; % remaining @ 1 h): 1%@ 1 h
SIF ([1]; % remaining @ 1 h): 24%@ 1 h
SGF ([2]; % remaining @ 1 h): 98%@ 1 h

Compound: CC(C)OCCn1c(=S)[nH]c(=O)c2c1ccn2COC(=O)CCCCOC(=O)CNC(=O)OC(C)(C)C [Example 328, {4-oxo-1-[2-(propan-2-yloxy)ethyl]-2-sulfanylidene-1H,2H,3H,4H,5H-pyrrolo[3,2-d]pyrimidin-5-yl}methyl 5-[(2-{[(tert-butoxy)carbonyl]amino}acetyl)oxy] pentanoate]
human Plasma stability (Plasma Stability; % remaining @ 1 h): 11%@ 1 h
SIF ([1]; % remaining @ 1 h): 6%@ 1 h
SGF ([2]; % remaining @ 1 h): 97%@ 1 h

Compound: CC(C)OCCn1c(=S)n(COC(=O)CCCCOC(=O)[C@@H](N)C(C)C)c(=O)c2c1ccn2COC(=O)CCCCOC(=O)[C@@H](N)C(C)C.O=C(O)C(F)(F)F.O=C(O)C(F)(F)F [Example 337, bis(trifluoroacetic acid) (3-{[(5-{[(2S)-2-amino-3-methylbutanoyl]oxy}pentanoyl)oxy]methyl}-4-oxo-1-[2-(propan-2-yloxy)ethyl]-2-sulfanylidene-1H,2H,3H,4H,5H-pyrrolo[3,2-d]pyrimidin-5-yl)methyl 5-{[(2S)-2-amino-3-methylbutanoyl]oxy}pentanoate]
human Plasma stability (Plasma Stability; % remaining @ 1 h): 60% remaining
SIF [1, 5]: 30
SGF [2, 5]: 98

Compound: CC(C)OCCn1c(=S)[nH]c(=O)c2c1ccn2COC(=O)CCCCOC(=O)[C@H](N)C(C)C.O=C(O)C(F)(F)F [Example 338, trifluoroacetic acid {4-oxo-1-[2-(propan-2-yloxy)ethyl]-2-sulfanylidene-1H,2H,3H,4H,5H-pyrrolo[3,2-d]pyrimidin-5-yl}methyl 5-{[(2R)-2-amino-3-methylbutanoyl]oxy}pentanoate]
human Plasma stability (Plasma Stability; % remaining @ 1 h): 4% remaining
SIF [1, 5]: 3
SGF [2, 5]: 99

Compound: CC(C)OCCn1c(=S)[nH]c(=O)c2c1ccn2COC(=O)OCCOCCN.O=C(O)C(F)(F)F [Example 354, trifluoroacetic acid 2-(2-aminoethoxy)ethyl {4-oxo-1-[2-(propan-2-yloxy)ethyl]-2-sulfanylidene-1H,2H,3H,4H,5H-pyrrolo[3,2-d]pyrimidin-5-yl}methyl carbonate]
human Plasma stability (Plasma Stability; human plasma, remaining at 1 h): 1% remaining
SIF [1, 6]: 3% remaining
SGF [2, 7]: 99% remaining

Compound: CC(C)OCCn1c(SCOC(=O)N(C)CCOCCN)nc(=O)c2[nH]ccc21.O=C(O)C(F)(F)F [Example 380, trifluoroacetic acid ({4-oxo-1-[2-(propan-2-yloxy)ethyl]-1H,4H,5H-pyrrolo[3,2-d]pyrimidin-2-yl}sulfanyl) methyl N-[2-(2-aminoethoxy)ethyl]-N-methylcarbamate]
human Plasma stability (Plasma Stability; human plasma, remaining at 1 h): 85% remaining
SIF [1, 6]: 99% remaining
SGF [2, 7]: 100% remaining

Compound: CC(C)OCCn1c(SCOC(=O)N(C)CCOCCN)nc(=O)c2c1ccn2COC(=O)N(C)CCOCCN.O=C(O)C(F)(F)F.O=C(O)C(F)(F)F [Example 382, bis(trifluoroacetic acid) (2-{[({[2-(2-aminoethoxy)ethyl](methyl)carba-moyl}oxy)methyl]sulfanyl}-4-oxo-1-[2-(propan-2-yloxy)ethyl]-1H,4H,5H-pyrrolo[3,2-d]pyrimidin-5-yl)methyl N-[2-(2-aminoethoxy)ethyl]-N-methylcarbamate]
human Plasma stability (Plasma Stability; human plasma, remaining at 1 h): 98% remaining
SIF [1, 6]: 99% remaining
SGF [2, 7]: 100% remaining

Compound: (2R)-2-{[(tert-butoxy)carbonyl]amino}-3-methyl-N-{2-[2-(2-{[{{4-oxo-1-[2-(propan-2-yloxy)ethyl]-2-sulfanylidene-1H,2H,3H,4H,5H-pyrrolo[3,2-d]pyrimidin-5-yl}methoxy)carbonyl]oxy}ethoxy)eth-oxy]ethyl}butanamide [Example 377]
human Plasma stability (Plasma Stability; human plasma, remaining at 1 h): 8% remaining
SIF ([1]; simulated intestinal fluid, bare number, unit or time not given): 11
SGF ([2]; simulated gastric fluid, bare number, unit or time not given): 83

human Plasma stability (Plasma Stability; % remaining at 1 h in human plasma, the 15th table): 96% @ 1 h
SIF ([1]; % remaining at 1 h in simulated intestinal fluid, the 15th table): 67% @ 1 h
SGF ([2]; % remaining at 1 h in simulated gastric fluid, the 15th table): 78% @ 1 h
Compound: ({4-oxo-1-[2-(propan-2-yloxy)ethyl]-1H,4H,5H-pyrrolo[3,2-d]pyrimidin-2 yl}sulfanyl)methyl N-butylcarbamate [Example 185]

Compound: N-[2-(2-aminoethoxy)ethyl]-4-oxo-1-[2-(propan-2-yloxy)ethyl]-2-sulfanylidene-1H, 2H,3H,4H,5H-pyrrolo[3,2-d]pyrimidine-5-carboxamide; trifluoroacetic acid [Example 376]
human Plasma stability (Plasma Stability; human plasma, remaining at 1 h): 95% remaining
SIF [1, 6]: 99% remaining
SGF [2, 7]: 98% remaining

Compound: bis(trifluoroacetic acid) 5-{[2-({[(5-{[(2R)-2-amino-4-methylpentanoyl]oxy}penta-noyl)oxy]methyl}sulfanyl)-4-oxo-1-[2-(propan-2-yloxy)ethyl]-1H,4H,5H-pyrrolo[3,2-d]pyrimidin-5-yl]methoxy}-5-oxopentyl (2R)-2-amino-4-methylpentanoate [Example 351]
human Plasma stability (Plasma Stability; human plasma, remaining at 1 h): 99% remaining
SIF [1, 6]: 14% remaining
SGF [2, 7]: 69% remaining

Compound: butoxy)carbonyl]amino}ethoxy)eth-yl](methyl)carbamoyl}oxy)methyl]sul-fanyl}-4-oxo-1-[2-(propan-2-yloxy)ethyl]-1H,4H,5H-pyrrolo[3,2-d]pyrimidin-5-yl)methoxy]carbonyl}(methyl)ami-no)ethoxy]ethyl}carbamate [Example 381]
human Plasma stability (Plasma Stability; human plasma, remaining at 1 h): 97% remaining
SIF [1, 6]: 97% remaining
SGF [2, 7]: 82% remaining

human Plasma stability (Plasma Stability; human plasma, remaining at 1 h): 0% remaining
SIF [1, 6]: 69% remaining
SGF [2, 7]: 93% remaining
Compound: tert-butyl N-(2-{2-[methyl({[{{4-oxo-1-[2-(propan-2-yloxy)ethyl]-1H,4H,5H-pyrrolo[3,2-d]pyrimidin-2-yl}sulfanyl)methoxy]carbonyl})ami-no]ethoxy}ethyl)carbamate [Example 379]

Compound: {4-oxo-1-[2-(propan-2-yloxy)ethyl]-2-sulfanylidene-1H,2H,3H,4H,5H-pyrrolo[3,2-d]pyrimidin-5-yl}methyl (2R)-1-[2-(2-{[(tert-butoxy)carbonyl]amino}acetamido) acetyl]pyrrolidine-2-carboxylate [Example 405]
human Plasma stability (Plasma Stability; % remaining after 1 h in human plasma): 1% remaining
SIF ([1]; % remaining after 1 h in simulated intestinal fluid): 81% remaining
SGF ([2]; % remaining after 1 h in simulated gastric fluid): 83% remaining
